{"source": "patent US20250092002A1", "about": "“FLUORINATED CATIONIC LIPIDS FOR USE IN LIPID NANOPARTICLES” (Acuitas Therapeutics, Inc., priority 2021, published 2025)", "key": {"[1]": {"assay": "Determination of pKa of formulated lipids (TNS fluorescence assay in lipid nanoparticles)", "assay_type": "physicochemical", "conditions": "probe 2-(p-toluidino)-6-napthalene sulfonic acid (TNS), 1 µM final, cationic lipid formulated in lipid nanoparticles (cationic lipid/DSPC/cholesterol/PEG-lipid 47.5/10/40.7/1.8 mol %), read-out: pKa", "description": "As described elsewhere, the pKa of formulated cationic lipids is correlated with the effectiveness of LNPs for delivery of nucleic acids (see Jayaraman et al, Angewandte Chemie, International Edition (2012), 51(34), 8529-8533; Semple et al, Nature Biotechnology 28, 172-176 (2010)). The preferred range of pKa is ˜5 to ˜7. The pKa of each cationic lipid was determined in lipid nanoparticles using an assay based on fluorescence of 2-(p-toluidino)-6-napthalene sulfonic acid (TNS). Lipid nanoparticles comprising cationic lipid/DSPC/cholesterol/PEG-lipid (47.5/10/40.7/1.8 mol %) in PBS at a concentration of 0.4 mM total lipid were prepared using the in-line process as described in Example 1. TNS was prepared as a 100 μM stock solution in distilled water. Vesicles were diluted to 24 μM lipid in 2 mL of buffered solutions containing, 10 mM HEPES, 10 mM MES, 10 mM ammonium acetate, 130 mM NaCl, where the pH ranged from 2.5 to 11. An aliquot of the TNS solution was added to give a final concentration of 1 μM and following vortex mixing fluorescence intensity was measured at room temperature in a SLM Aminco Series 2 Luminescence Spectrophotometer using excitation and emission wavelengths of 321 nm and 445 nm. A sigmoidal best fit analysis was applied to the fluorescence data and the pKa was measured as the pH giving rise to half-maximal fluorescence intensity."}, "[2]": {"system": "luciferase expression in the liver", "assay": "In vivo luciferase mRNA expression rodent model (liver luciferase after tail vein injection of mRNA-LNP)", "set-up": "species or system mice", "description": "Lipid nanoparticles were prepared and tested according to the general procedures described in PCT Pub. Nos. WO 2015/199952 and WO 2017/004143, the full disclosures of which are incorporated herein by reference. Briefly, cationic lipid, DSPC, cholesterol and PEG-lipid were solubilized in ethanol at a molar ratio of about 50:10:38.5:1.5 or about 47.5:10:40.7:1.8. Lipid nanoparticles (LNP) were prepared at a total lipid to mRNA weight ratio of approximately 10:1 to 40:1. The mRNA is diluted to 0.2 mg/mL in 10 to 50 mM citrate or acetate buffer, pH 4. Syringe pumps were used to mix the ethanolic lipid solution with the mRNA aqueous solution at a ratio of about 1:5 to 1:3 (vol/vol) with total flow rates above 15 mL/min. The ethanol was then removed and the external buffer replaced with PBS by dialysis. Finally, the lipid nanoparticles were filtered through a 0.2 µm pore sterile filter. Lipid nanoparticle particle size was approximately 55-95 nm diameter, and in some instances approximately 70-90 nm diameter as determined by quasi-elastic light scattering using a Malvern Zetasizer Nano ZS (Malvern, UK).\nStudies were performed in 6-8 week old female C57BL/6 mice (Charles River) or 8-10 week old CD-1 (Harlan) mice (Charles River) according to guidelines established by an institutional animal care committee (ACC) and the Canadian Council on Animal Care (CCAC). Varying doses of mRNA-lipid nanoparticle were systemically administered by tail vein injection and animals euthanized at a specific time point (e.g., 4 hours) post-administration. Liver and spleen were collected in pre-weighed tubes, weights determined, immediately snap frozen in liquid nitrogen and stored at −80° C. until processing for analysis.\nFor liver, approximately 50 mg was dissected for analyses in a 2 mL FastPrep tubes (MP Biomedicals, Solon OH). ¼″ ceramic sphere (MP Biomedicals) is added to each tube and 500 μL of Glo Lysis Buffer—GLB (Promega, Madison WI) equilibrated to room temperature is added to liver tissue. Liver tissues were homogenized with the FastPrep24 instrument (MP Biomedicals) at 2×6.0 m/s for 15 seconds. Homogenate was incubated at room temperature for 5 minutes prior to a 1:4 dilution in GLB and assessed using SteadyGlo Luciferase assay system (Promega). Specifically, 50 μL of diluted tissue homogenate was reacted with 50 μL of SteadyGlo substrate, shaken for 10 seconds followed by 5 minute incubation and then quantitated using a CentroXS^3 LB 960 luminometer (Berthold Technologies, Germany). The amount of protein assayed was determined by using the BCA protein assay kit (Pierce, Rockford IL). Relative luminescence units (RLU) were then normalized to total μg protein assayed. To convert RLU to ng luciferase a standard curve was generated with QuantiLum Recombinant Luciferase (Promega).\nThe FLuc mRNA (L-6107 or L-7202) from Trilink Biotechnologies will express a luciferase protein, originally isolated from the firefly, Photimus pyralis. FLuc is commonly used in mammalian cell culture to measure both gene expression and cell viability. It emits bioluminescence in the presence of the substrate, luciferin. This capped and poly-adenylated mRNA was fully substituted with respect to uridine and/or cytidine nucleosides.\nRepresentative compounds of the disclosure shown in Table 2 were formulated using the following molar ratio: 50% cationic lipid/10% distearoylphosphatidylcholine (DSPC)/38.5% Cholesterol/1.5% PEG lipid 2-[2-(ω-methoxy(polyethyleneglycol2000)ethoxy]-N,N-ditetradecylacetamide) or 47.5% cationic lipid/10% DSPC/40.7% Cholesterol/1.8% PEG lipid. Relative activity was determined by measuring luciferase expression in the liver 4 hours following administration via tail vein injection as described in Example 1. The activity was compared at a dose of 1.0 or 0.5 or 0.3 mg mRNA/kg and expressed as ng luciferase/g liver measured 4 hours after administration, as described in Example 1. Compound numbers in Table 2 refer to the compound numbers of Table 1. […]"}}, "note": "Marks after values point to notes of the source that are not given here.", "data": [{"compound": "CCCCCCC(CCCC)COC(=O)CCCCCC(CCCCCC(=O)OCC(CCCC)CCCCCC)N(CCCCCN(C)C)C(=O)C(F)(F)C(F)(F)C(F)(F)C(F)(F)C(F)(F)C(F)(F)C(F)(F)F", "note": "(stereo not shown) [Compound I-11, BIS(2-BUTYLOCTYL) 7-(N-(5-(DIMETHYLAMINO)PENTYL)-2,2,3,3,4,4,5,5,6,6,7,7,8,8,8-PENTADECAFLUOROOCTANAMIDO)TRIDECANEDIOATE]", "values": [{"measurement": "pKa", "setting": "[1]", "result": 6.28}, {"measurement": "Liver Luc (ng luc/g liver), determined at 0.3 mg/kg", "setting": "[2]; 0.3 mg/kg (footnote *), tail vein injection, liver 4 hours after administration", "result": "3411 ± 803* ng luc/g liver"}, {"measurement": "efficacy toward activation of the Luciferase mRNA expression as compared with non-fluorinated analogue", "setting": "[2]; 0.3 mg/kg and 1.0 mg/kg, versus I-5 analogue and I-11 analogue respectively", "result": "increased efficacy"}, {"measurement": "Liver Luc (ng luc/g liver), determined at 1.0 mg/kg", "setting": "[2]; 1.0 mg/kg, tail vein injection, liver 4 hours after administration", "result": "45575 ± 11088", "unit": "ng luc/g liver"}]}]}
